Assay results: paper PMC7595621, “Quorum sensing N-Acyl homoserine lactones are a new class of anti-schistosomal” (PLoS Neglected Tropical Diseases, 2020)
Read-outs that look alike come from different tables or passages of the source.

Experiments:
Assay type in all cases: cell-based, Schistosoma mansoni
[1] = test system: adult S. mansoni worm pairs; experiment: Screening of adult S. mansoni blood flukes (7-week worms), WHO-TDR motility scoring; settings: for Selectivity index, adult worm female: HepG2 CC50 / adult female EC50; for Selectivity index, adult worm male: HepG2 CC50 / adult male EC50; for EC50: Schistosoma mansoni
Description: (§1) Adult S. mansoni parasites were recovered by hepatic portal vein perfusion from TO outbred mice (HsdOla:TO, Tuck-Ordinary, Envigo, UK) that were percutaneously infected seven weeks earlier with 180 cercariae. Three adult worm pairs per well, in duplicate, were transferred into 48 well plates (Fisher Scientific, Loughborough, UK) and cultured at 37 °C in an atmosphere containing 5% CO2 in DMEM (Gibco, Paisley, UK) containing 10% v/v HEPES, 10% v/v Foetal Bovine Serum (FBS), 0.7% v/v 200 mM L-Glutamine and 1X v/v penicillin-streptomycin. Worms were dosed with test compounds at 20 μM, 10 μM, 5 μM, 2.5 μM, 1.25 μM and 0.625 μM (in 0.2% DMSO) for 72 hr. Adult worms were scored manually at 72 hr using the WHO-TDR metric scoring system as described previously. Dose response curves and EC50 values were obtained by non-linear regression, after log transformation of concentrations and data normalization using GraphPad Prism 7.02. At 72 hr, the medium from each well was also collected, centrifuged at 350 x g for 2 min. Afterwards, the supernatant was removed, and the remaining egg pellet re-suspended in 10% v/v formalin. Eggs that were oval and contained a fully formed lateral spine were subsequently counted.
(§2) Fig 3 Adult schistosome motility and egg production are differentially affected by the nine N-acyl homoserine lactones. […] Parasite motility was evaluated for each sex and scored using the WHO-TDR scoring system (0 = Dead parasite, 4 = Normal/Healthy movement). B) Culture media were collected from some adult co-cultures at 72 hrs and eggs present in the media were counted. p values are indicated as follows: * <0.05, ** <0.01, *** <0.001.
Initially, these screens were conducted at 20 μM; any compounds that scored a 1 or 0 for motility at this primary concentration were further titrated until no further effect was observed. […] Similar to the schistosomula assays, the differences observed in adult parasite motility when treated with the (R)- and (S)- enantiomers of Compound 1 were striking. […] Estimated EC50s for male and female parasites for these two enantiomers were determined (Table 2), with Compound 5 ((R)- enantiomer) having greater activity than Compound 6 ((S)- enantiomer).

[2] = test system: juvenile S. mansoni worms; experiment: Screening of juvenile S. mansoni blood flukes (3-week worms), motility scoring; settings: for Selectivity index, juvenile worm: HepG2 CC50 / juvenile worm EC50; for EC50: Schistosoma mansoni, 3-week worms, motility scores, read-out: JUVENILE WORM EC50
Description: (§3) Juvenile S. mansoni parasites were recovered via hepatic portal vein perfusion from TO outbred mice (HsdOla:TO, Tuck-Ordinary, Envigo, UK) that were infected percutaneously three weeks earlier with 4000 cercariae. Preparation and centrifugation of juvenile worms have been described previously. […] After motility quantification, 2 μg/mL of PI was added to each well and the plate returned to 37°C, 5% CO2 for 15 minutes. Each well was subsequently imaged on the Roboworm platform using brightfield and fluorescent microscopy (excitation wavelength = 580 nm; emission wavelength = 604 nm). The number of PI positive vs PI negative juvenile worms were cross-checked with the motility scores obtained by our scoring matrix, and the data reported as percentage of PI positive across all parasites within the well. EC50 values were calculated from the motility scores obtained from the dose response titration (as detailed above) and dose response curves were obtained by non-linear regression, after log transformation of concentrations and data normalization using GraphPad Prism 7.02.
Fig 4 Three week juvenile worms are immobilised by N-Acyl homoserine lactones. Three-week old juvenile S. mansoni worms (n = 13–33 per well) were co-cultured with compounds (1) and (3) at concentrations spanning 15 μM—0.23 μM for 72 hrs at 37°C in a humidified atmosphere containing 5% CO2. Parasite motility was scored between 0–4 (0 = no movement/dead, 4 = full movement/healthy). […] A) Effect of compound (1) on juvenile worm motility. (B) Effect of compound (3) on juvenile worm motility. p values are indicated as follows: * <0.05, ** <0.01, *** <0.001.

[3] = test system: adult S. mansoni worm pairs (egg production); experiment: In vitro egg production of adult S. mansoni worm pairs; settings: 72 hr, compared to DMSO
Description: as §1, §2
As morbidity associated with schistosomiasis is caused by egg-induced granuloma formation in tissues and the subsequent development of fibrotic lesions around these granulomas, compound-mediated modulation of in vitro egg production (as a surrogate for the in vivo pathology initiator) was next assessed (Fig 3B). […] In comparison to the negative control DMSO, in which egg counts ranged from 300–594 (Average—408), all N-Acyl homoserine lactones affected fecundity.

[4] = test system: juvenile S. mansoni worms; experiment: Propidium iodide (PI) staining of juvenile S. mansoni worms; settings: 72 hrs
Description: as §3
Three week juvenile schistosomes, incubated with compounds (1), (3) or controls for 72 hrs, were subsequently cultured with PI at a final concentration of 2 μg/mL for 15 minutes at 37 °C in an environment containing 5% CO2. PI positive parasites (dead) were counted and the percent live vs dead in each well is indicated. A) Quantification of compound (1) mediated juvenile death. B) Quantification of compound (3) mediated juvenile death.

[5] = 7-week worms, 72 hr, motility, 95% confidence interval, read-out: ADULT WORM EC50 Female
[6] = 7-week worms, 72 hr, motility, 95% confidence interval, read-out: ADULT WORM EC50 Male

SMILES	Selectivity index, adult worm female [1]	Selectivity index, adult worm male [1]	EC50 [1, 5] [µM]	EC50 [1, 6] [µM]	significant effect on juvenile worm motility down to ([2]; 72 hr) [µM]	Selectivity index, juvenile worm [2]	EC50 ([2]; 72 hr) [µM]	egg laying significantly reduced down to concentration [3] [µM]	Percent P.I positive parasites ([4]; 3.75 μM) [%]	Percent P.I positive parasites ([4]; 7.5 μM) [%]	Percent P.I positive parasites ([4]; 15 μM) [%]	significant reduction in adult worm motility observed down to ([1]; 72 hr) [µM]	EC50 ([1]; sex not stated (abstract), read-out: adult worms EC50) [µM]	complete immobility of juvenile worms observed down to ([2]; 72 hr) [µM]	effect on egg production (fecundity) [3]	100% of the parasites PI positive down to concentration [4] [µM]
O=C(CBr)NC1CCOC1=O (centres unmarked) [Compound 1, 2-bromo-N-(2-oxotetrahydrofuran-3-yl)acetamide]	5.2	5.3	8.3	8.2	7.5	10.1	4.3	10	13.3	100	100					
O=C(CBr)NC1CCSC1=O (centres unmarked) [Compound 3, 2-bromo-N-(2-oxotetrahydrothiophen-3-yl)acetamide]	4.8	4.5	3.9	4.2		37.4	0.5	2.5				5	4.8	0.94	still affected at 1.25 μM, this was not statistically significant	0.94
